The test system of this data set is dsDNA. As to the kind of experiment: Real-time DNA melting assay (PicoGreen/ROX melting curves).
Excerpt: Components of this assay include 1) a reaction vessel free from DNase and RNase, 2) a dsDNA-specific dye, 3) a reference dye 4) dsDNA, and 5) the genotoxicant(s). […] As the sample is heated in the real-time thermocycler, the dsDNA melts becoming single-stranded. Single-stranded DNA no longer supports PicoGreen fluorescence, thus the relative amount of PicoGreen to ROX fluorescence declines proportionately to the loss of DNA base-pairing. As will be understood by the skilled artisan upon reading this disclosure, alternative fluorometric dyes or spectrophotometric dyes can be used in the method of the present invention.
In one embodiment, the raw dsDNA-specific fluorescence is normalized to the corresponding reference fluorescence at each temperature point to correct for decreased dye fluorescence resulting directly from the increasing solution temperature. This normalized fluorescence is then graphed as a function of temperature to produce the melting curve. Initial fluorescence from this curve is used to determine the extent of double-strand breakage. The first derivative of this melting curve is then plotted and used to determine both the initial melting temperature and the melting rate across the entire temperature gradient. […] A schematic representation of the typical melting curves is shown in FIG. 1 wherein, with increasing pH, salinity, or temperature, DNA dissociation increases resulting in a decrease in relative fluorescence.
The ability to detect DNA-damaging agents was first examined under conditions under which only the pharmaceutical agent was allowed to interact with the dsDNA.
(§1) Samples were analyzed using an ABI 7300 real time thermocycler over a temperature range of 4° C. to 99° C. Data is presented as PicoGreen fluorescence normalized to ROX.
as §1
Samples were analyzed over a temperature range of 4° C. to 99° C. using an ABI 7300 real time thermocycler. Data is presented as PicoGreen fluorescence normalized to ROX. […] When single strand breaks are in close proximity, double strand breaks can result.

Where [1] appears, read: dsDNA 1,000 ng/ml treated with increasing concentrations of compound, PicoGreen normalized to ROX, 4° C. to 99° C.

Each structure is given as a SMILES string. Entries after “also recorded” stand apart in the source; their conditions may differ. Like-named read-outs stand apart in the source and are kept apart here.

`C[C@]12CC[C@@H]3c4cc(O)c(O)cc4CC[C@H]3[C@@H]1CC[C@@H]2O` [2-hydroxyestradiol]: under setting [1], the initial fluorescence entry is recorded as “increase in initial fluorescence” and the initial melting slope entry is reported as “increase in initial melting slope”.
Regarding `CC[C@@]1(O)C(=O)OCc2c1cc1n(c2=O)Cc2cc3ccccc3nc2-1` [camptothecin], the “effect on DNA melting curves” value (dsDNA 1,000 ng/ml treated with non-genotoxic concentrations, PicoGreen normalized to ROX, 4° C. to 99° C.) was “lack of effect; also recorded: does not alter DNA melting”.
Regarding `CC[C@H](c1ccc(O)cc1)[C@@H](CC)c1ccc(O)cc1` [hexestrol], the initial melting temperature result was “decrease in the initial melting temperature”.
Regarding `O=C1C(=O)c2ccccc2-c2ccccc21` [phenanthrenequinone], the initial melting temperature result (dsDNA 1,000 ng/ml treated with increasing concentrations of compound, PicoGreen fluorescence normalized to ROX, 4° C. to 99° C.) is “increase in the initial melting temperature”.

The record behind these values is patent US8927463B2, “Sensitive high throughput method for DNA damage and repair” (priority 2013, dated 2015).
